The record followed here is ChEMBL document CHEMBL4725351, “Cyclic Derivative of Host-Defense Peptide IDR-1018 Improves Proteolytic Stability, Suppresses Inflammation, and Enhances In Vivo Activity” (J Med Chem, 2020).

In series [1] the test system is Escherichia coli. The series is described as follows: Antibiofilm activity against Escherichia coli ATTC 489 incubated for 24 hrs under shaking condition by turbidometric method. In kind it is functional.
In series [2] the test system is Staphylococcus aureus. The series is described as follows: Antibiofilm activity against methicillin-resistant Staphylococcus aureus USA300 LAC incubated for 24 hrs under shaking condition by turbidometric method. The class given is functional.
A short description of series [3]: Aggregation property of the compound in RPMI medium with 1% FBS at 1 mg/ml by turbidimetric method. In kind it is physicochemical.
A short description of series [4]: Aggregation of the compound in human PBMC assessed as amorphous morphology at 50 ug/ml measured after 4 hrs by microscopic analysis. The class given is ADME, tissue-based. To be noted: dose 50 µg/ml.
In series [5] the test system is Pseudomonas aeruginosa. The experiment in a line: Antibacterial activity against Pseudomonas aeruginosa PAO1 measured after overnight incubation by microtitre plate based spectrophotometric method. In kind it is functional.
Series [6] has as its system Staphylococcus aureus. The experiment in a line: Antibacterial activity against methicillin-resistant Staphylococcus aureus SAP0017 measured after overnight incubation by microtitre plate based spectrophotometric method. In kind it is functional.
The subject of series [7] is PBMC. The experiment in a line: Immunomodulatory activity in human PBMC assessed as change in TNFalpha production at 25 ug/ml measured after overnight incubation by ELISA. In kind it is functional, tissue-based. To be noted: dose 25.0 µg/ml.
The subject of series [8] is Escherichia coli. The experiment in a line: Antibacterial activity against Escherichia coli ATTC 489 measured after overnight incubation by microtitre plate based spectrophotometric method. The class given is functional.
For series [9], the system named is Klebsiella pneumoniae. The series is described as follows: Antibacterial activity against Klebsiella pneumoniae ATTC 13883 measured after overnight incubation by microtitre plate based spectrophotometric method. The class given is functional.
In series [10] the test system is PBMC. The series is described as follows: Immunomodulatory activity in human PBMC assessed as increase in MCP1 production at 25 ug/ml measured after overnight incubation by ELISA. The class given is functional, tissue-based. To be noted: dose 25.0 µg/ml. Background: ELISA stands for enzyme-linked immunosorbent assay.
Series [11] deals with Acinetobacter baumannii. The experiment in a line: Antibiofilm activity against Acinetobacter baumannii 5015 incubated for 24 hrs under shaking condition by turbidometric method. The class given is functional.
Series [12] in a line: Aggregation property of the compound in water at 1 mg/ml by turbidimetric method. To be noted: buffer. In kind it is physicochemical.
Series [13] has as its system PBMC. The experiment in a line: Immunomodulatory activity in human PBMC assessed as increase in IL-1RA production at 25 ug/ml measured after overnight incubation by ELISA. To be noted: dose 25.0 µg/ml. In kind it is functional, tissue-based.
Series [14] has as its system Staphylococcus aureus. The series is described as follows: Antibacterial activity against methicillin-resistant Staphylococcus aureus USA300 LAC measured after overnight incubation by microtitre plate based spectrophotometric method. In kind it is functional.
A short description of series [15]: Aggregation property of the compound in saline at 1 mg/ml by turbidimetric method. In kind it is physicochemical. To be noted: buffer.
The test system of series [16] is Acinetobacter baumannii. The series is described as follows: Antibacterial activity against Acinetobacter baumannii 17918 measured after overnight incubation by microtitre plate based spectrophotometric method. In kind it is functional.
Series [17] is described as follows: Cytotoxicity against human PBMC assessed as reduction in cell viability at 100 ug/ml measured after 24 hrs by LDH assay. In kind it is tissue-based. To be noted: dose 100 µg/ml.
Series [18] relates to Acinetobacter baumannii. The series is described as follows: Antibacterial activity against Acinetobacter baumannii 5015 measured after overnight incubation by microtitre plate based spectrophotometric method. The class given is functional.
Series [19] relates to Pseudomonas aeruginosa. The experiment in a line: Antibiofilm activity against Pseudomonas aeruginosa PAO1 incubated for 24 hrs under shaking condition by turbidometric method. In kind it is functional.
Series [20] concerns the target T1, Trypsin (Homo sapiens, UniProt P07477+P07478+P35030). The experiment in a line: Stability of the compound in pH 8.2 ammonium bicarbonate buffer assessed as trypsin (unknown origin)-mediated drug degradation at 20 ug/ml measured up to 120 mins by RP-HPLC analysis. The class given is ADME, protein assay. To be noted: pH 8.2, 2 h, at 20 µg/mL.
Series [21] has as its system Acinetobacter baumannii. The series is described as follows: Antibiofilm activity against Acinetobacter baumannii 17918 incubated for 24 hrs under shaking condition by turbidometric method. In kind it is functional.
For series [22], the system named is Pseudomonas aeruginosa. The series is described as follows: Antibacterial activity against Pseudomonas aeruginosa PA14 measured after overnight incubation by microtitre plate based spectrophotometric method. In kind it is functional.
Series [23] in a line: Aggregation property of the compound in sodium phosphate solution at 10 mM by turbidimetric method. To be noted: 10000 µM. In kind it is physicochemical.
For series [24], the system named is Staphylococcus aureus. The experiment in a line: Antibiofilm activity against methicillin-resistant Staphylococcus aureus SAP0017 incubated for 24 hrs under shaking condition by turbidometric method. In kind it is functional.
Series [25] has as its target T1, Trypsin. The series is described as follows: Stability of the compound in pH 8.2 ammonium bicarbonate buffer assessed as trypsin (unknown origin)-mediated drug degradation at 20 ug/ml measured up to 120 mins by MALDI-TOF analysis. The class given is ADME, protein assay. To be noted: pH 8.2, 2 h, at 20 µg/mL.
Series [26] in a line: Aggregation property of the compound in 5% dextrose at 1 mg/ml by turbidimetric method. In kind it is physicochemical.
Series [27] concerns Pseudomonas aeruginosa. The experiment in a line: Antibiofilm activity against Pseudomonas aeruginosa PA14 incubated for 24 hrs under shaking condition by turbidometric method. The class given is functional.
Series [28] can be described thus: Aggregation property of the compound in sodium citrate solution at 10 mM by turbidimetric method. To be noted: 10000 µM. The class given is physicochemical.
Series [29] in a line: Aggregation property of the compound in sodium nitrate solution at 10 mM by turbidimetric method. In kind it is physicochemical. To be noted: 10000 µM.
Series [30] has as its system Klebsiella pneumoniae. The series is described as follows: Antibiofilm activity against Klebsiella pneumoniae ATTC 13883 incubated for 24 hrs under shaking condition by turbidometric method. The class given is functional.
Series [31] deals with Escherichia coli. The experiment in a line: Antibiofilm activity against 24 hrs preformed Escherichia coli ATTC 489 biofilm assessed as reduction in biofilm viability at 100 ug/ml by TTC assay. The class given is functional, organism-based. To be noted: dose 100.0 µg/ml.
Series [32] has as its system Klebsiella pneumoniae. The series is described as follows: Antibiofilm activity against 24 hrs preformed Klebsiella pneumoniae ATTC 13883 biofilm assessed as reduction in biofilm viability at 100 ug/ml by TTC assay. In kind it is functional, organism-based. To be noted: dose 100.0 µg/ml.
For series [33], the system named is Acinetobacter baumannii. The experiment in a line: Antibiofilm activity against 24 hrs preformed Acinetobacter baumannii 17918 biofilm assessed as reduction in biofilm viability at 100 ug/ml by TTC assay. The class given is functional, organism-based. To be noted: dose 100.0 µg/ml.
For series [34], the system named is Pseudomonas aeruginosa. The series is described as follows: Antibiofilm activity against 24 hrs preformed Pseudomonas aeruginosa PA14 biofilm assessed as reduction in biofilm viability at 100 ug/ml by TTC assay. In kind it is functional, organism-based. To be noted: dose 100.0 µg/ml.
Series [35] relates to Acinetobacter baumannii. The experiment in a line: Antibiofilm activity against 24 hrs preformed Acinetobacter baumannii 5015 biofilm assessed as reduction in biofilm viability at 100 ug/ml by TTC assay. The class given is functional, organism-based. To be noted: dose 100.0 µg/ml.
Series [36] relates to Pseudomonas aeruginosa. The series is described as follows: Antibiofilm activity against 24 hrs preformed Pseudomonas aeruginosa PAO1 biofilm assessed as reduction in biofilm viability at 100 ug/ml by TTC assay. To be noted: dose 100.0 µg/ml. The class given is functional, organism-based.

In brackets after ≈: the same amount, converted by molar mass. Activity calls are given as the source filed them. The calls are words filed in the database; no cut-off is given here. Where a SMILES comes first, the peptide text is derived from it.

Broadly, the MIC is the lowest concentration found to suppress growth. Regarding `CC[C@H](C)[C@@H]1NC(=O)[C@H](CCCNC(=N)N)NC(=O)[C@H](C(C)C)NC(=O)[C@H](C)NC(=O)[C@H](C(C)C)NC(=O)[C@H]([C@@H](C)CC)NC(=O)[C@H](CC(C)C)NC(=O)[C@H](CCCNC(=N)N)NC(=O)[C@H](C(C)C)NC(=O)[C@H](CCCNC(=N)N)NC(=O)[C@H](CCCNC(=N)N)NC(=O)[C@H](Cc2c[nH]c3ccccc23)NC1=O` (cyclo(AVRIWRRVRLIV)), the MBEC in the series on Escherichia coli [1] is above 65.8 µM; in the series with Staphylococcus aureus [2] it was 65.8 µM; in the series on Acinetobacter baumannii [11] it was above 65.8 µM; with Pseudomonas aeruginosa [19] it was above 65.8 µM; in the series on Acinetobacter baumannii [21] it was above 65.8 µM; in the series on Staphylococcus aureus [24] it was 65.8 µM. Moreover, the MBEC in the series with Pseudomonas aeruginosa [27] and with Klebsiella pneumoniae [30] was above 65.8 µM in each case. Further, the Activity entry is “Active” in [3]; “Not Active” in series [4]; “Not Active” in series [12]; “Not Active” in [15]; “Toxic” in series [17]; “Not Active” in series [23]. In addition, the Activity entry in series [26], in series [28] and in series [29] was “Not Active” each time. Moreover, the MIC against Pseudomonas aeruginosa [5] is above 65.8 µM; against Staphylococcus aureus [6] it was 65.8 µM (≈ 99.9 µg/mL); against Escherichia coli [8] it was 65.8 µM (≈ 99.9 µg/mL); in the series with Klebsiella pneumoniae [9] it was 65.8 µM (≈ 99.9 µg/mL); in the series with Staphylococcus aureus [14], 65.8 µM (≈ 99.9 µg/mL); against Acinetobacter baumannii [16] it was 65.8 µM (≈ 99.9 µg/mL). In addition, the MIC against Acinetobacter baumannii [18] was 65.8 µM (≈ 99.9 µg/mL); with Pseudomonas aeruginosa [22], above 65.8 µM. The outcome in the series with PBMC [7], in the series on PBMC [10] and with PBMC [13] was Active. Further, the Stabilty result on Trypsin [20] and at Trypsin [25] was “Stable” in each case.

`CCCCCCCCCCCCCCCC[N+](C)(C)Cc1ccccc1.[Cl-]` [CETALKONIUM CHLORIDE]: the MBEC in the series on Escherichia coli [1] is 40.3 µM; in the series on Staphylococcus aureus [2], 20.1 µM; with Acinetobacter baumannii [11], 40.3 µM; in the series with Pseudomonas aeruginosa [19], above 126 µM; with Acinetobacter baumannii [21], 40.3 µM; with Staphylococcus aureus [24] it was 15.1 µM. For the same compound, the MBEC is above 126 µM with Pseudomonas aeruginosa [27] and 63.1 µM in the series on Klebsiella pneumoniae [30]. The minimal inhibitory concentration (MIC) in the series with Pseudomonas aeruginosa [5] was above 126 µM; against Staphylococcus aureus [6], 3.7 µM; in the series with Escherichia coli [8], 7.8 µM; against Klebsiella pneumoniae [9], 7.8 µM; against Staphylococcus aureus [14] it was 3.7 µM; against Acinetobacter baumannii [16], 7.8 µM. For the same compound, the results for the minimum inhibitory concentration (MIC) against Acinetobacter baumannii [18] and in the series on Pseudomonas aeruginosa [22] were 7.8 µM and above 126 µM, respectively.

As to `CN[C@H](CC(C)C)C(=O)N[C@H]1C(=O)N[C@@H](CC(N)=O)C(=O)N[C@H]2C(=O)N[C@H]3C(=O)N[C@H](C(=O)N[C@H](C(=O)O)c4cc(O)cc(O)c4-c4cc3ccc4O)[C@H](O)c3ccc(c(Cl)c3)Oc3cc2cc(c3O[C@@H]2O[C@H](CO)[C@@H](O)[C@H](O)[C@H]2O[C@H]2C[C@](C)(N)[C@H](O)[C@H](C)O2)Oc2ccc(cc2Cl)[C@H]1O` [VANCOMYCIN], the MBEC with Escherichia coli [1], in the series on Staphylococcus aureus [2], in the series with Acinetobacter baumannii [11], in the series on Pseudomonas aeruginosa [19], in the series with Acinetobacter baumannii [21] and in the series with Staphylococcus aureus [24] was above 68 µM each time. Besides, the MBEC in the series with Pseudomonas aeruginosa [27] and with Klebsiella pneumoniae [30] was above 68 µM each time. Moreover, the minimal inhibitory concentration (MIC) with Pseudomonas aeruginosa [5] is above 68 µM; against Staphylococcus aureus [6], 0.4 µM (≈ 0.58 µg/mL); against Escherichia coli [8], above 68 µM; with Klebsiella pneumoniae [9], above 68 µM; against Staphylococcus aureus [14] it was 0.4 µM (≈ 0.58 µg/mL); against Acinetobacter baumannii [16], above 68 µM. Moreover, the MIC against Acinetobacter baumannii [18] and against Pseudomonas aeruginosa [22] was above 68 µM throughout.

Take COLISTIN: the MBEC in the series on Escherichia coli [1], in the series on Staphylococcus aureus [2], in the series with Acinetobacter baumannii [11], in the series with Pseudomonas aeruginosa [19], with Acinetobacter baumannii [21] and in the series with Staphylococcus aureus [24] was above 86 µM in each case. Besides, the MBEC with Pseudomonas aeruginosa [27] and in the series with Klebsiella pneumoniae [30] was above 86 µM in each case. For the same compound, the MIC is 2.5 µM against Pseudomonas aeruginosa [5]; above 86 µM against Staphylococcus aureus [6]; 1.2 µM against Escherichia coli [8]; 1.2 µM in the series with Klebsiella pneumoniae [9]; above 86 µM in the series on Staphylococcus aureus [14]; 1.2 µM against Acinetobacter baumannii [16]. The MIC turned out to be 1.2 µM against Acinetobacter baumannii [18] and 2.5 µM with Pseudomonas aeruginosa [22]. Also, the result in the series with Escherichia coli [31], with Klebsiella pneumoniae [32], with Acinetobacter baumannii [33], in the series with Pseudomonas aeruginosa [34], with Acinetobacter baumannii [35] and in the series on Pseudomonas aeruginosa [36] was inactive.
